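Abbreviation: GI50, concentration required for 50% inhibition of growth. TGI: total growth inhibition.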
What was measured:
Test in all cases: NCI-60 cell line screen, 384-well format
NCI-H322M lung = test system: NCI-H322M lung
NCI-H23 lung = test system: NCI-H23 lung
A498 renal = test system: A498 renal
M14 melanoma = test system: M14 melanoma
PC-3 prostate = test system: PC-3 prostate
NCI-H460 NSCLC = test system: NCI-H460 NSCLC
EKVX NSCLC = test system: EKVX NSCLC
UACC-257 melanoma = test system: UACC-257 melanoma
SNB-19 CNS = test system: SNB-19 CNS
K-562 leukemia = test system: K-562 leukemia
CAKI-1 renal = test system: CAKI-1 renal
DU-145 prostate = test system: DU-145 prostate
SF-295 CNS = test system: SF-295 CNS
HL-60(TB) leukemia = test system: HL-60(TB) leukemia
HT29 colon = test system: HT29 colon
OVCAR-5 ovarian = test system: OVCAR-5 ovarian
MOLT-4 leukemia = test system: MOLT-4 leukemia
IGROV1 ovarian = test system: IGROV1 ovarian
OVCAR-4 ovarian = test system: OVCAR-4 ovarian
TK-10 renal = test system: TK-10 renal
MDA-MB-435 melanoma = test system: MDA-MB-435 melanoma
SK-MEL-5 melanoma = test system: SK-MEL-5 melanoma
SR leukemia = test system: SR leukemia
HCT-116 colon = test system: HCT-116 colon
NCI-H522 lung = test system: NCI-H522 lung
T-47D breast = test system: T-47D breast
MDA-MB-231 breast = test system: MDA-MB-231 breast
HS 578T breast = test system: HS 578T breast
A549 NSCLC = test system: A549 NSCLC
HOP-92 NSCLC = test system: HOP-92 NSCLC
SK-MEL-28 melanoma = test system: SK-MEL-28 melanoma
ACHN renal = test system: ACHN renal
BT-549 breast = test system: BT-549 breast
COLO 205 colon = test system: COLO 205 colon
SNB-75 CNS = test system: SNB-75 CNS
UACC-62 melanoma = test system: UACC-62 melanoma
SN12C renal = test system: SN12C renal
NCI-H226 lung = test system: NCI-H226 lung
UO-31 renal = test system: UO-31 renal
786-0 renal = test system: 786-0 renal
HCT-15 colon = test system: HCT-15 colon
MDA-MB-468 breast = test system: MDA-MB-468 breast
MALME-3M melanoma = test system: MALME-3M melanoma
KM12 colon = test system: KM12 colon
RXF 393 renal = test system: RXF 393 renal
HOP-62 NSCLC = test system: HOP-62 NSCLC
OVCAR-8 ovarian = test system: OVCAR-8 ovarian
OVCAR-3 ovarian = test system: OVCAR-3 ovarian
SF-539 CNS = test system: SF-539 CNS
MCF7 breast = test system: MCF7 breast
SF-268 CNS = test system: SF-268 CNS
U251 glioblastoma = test system: U251 glioblastoma
SW-620 colon = test system: SW-620 colon
SK-MEL-2 melanoma = test system: SK-MEL-2 melanoma

COc1cc(C(=O)O)ccc1NC(=O)[C@@H]1N[C@@H](CC(C)(C)C)[C@](C#N)(c2ccc(Cl)cc2F)[C@H]1c1cccc(Cl)c1F showed a GI50 (NCI-H322M lung) of 10.3 µM, a TGI (NCI-H322M lung) of 22 µM and a GI50 (NCI-H23 lung) of 4.77 µM. The GI50 (A498 renal) was 0.0406 µM, the TGI (A498 renal) was 4.26 µM and the GI50 (M14 melanoma) was 1.98 µM. The TGI (M14 melanoma) was 11.2 µM, the GI50 (PC-3 prostate) was 4.32 µM and the TGI (PC-3 prostate) was 14.2 µM. It also gave a GI50 (NCI-H460 NSCLC) of 4.31 µM, a TGI (NCI-H460 NSCLC) of 14.5 µM and a GI50 (EKVX NSCLC) of 5.88 µM. For the same compound, the GI50 (UACC-257 melanoma) was 0.228 µM, the TGI (UACC-257 melanoma) was 0.657 µM and the GI50 (SNB-19 CNS) was 4.3 µM. The TGI (SNB-19 CNS) was 14.1 µM, the GI50 (K-562 leukemia) was 4.19 µM and the TGI (K-562 leukemia) was 13.9 µM. For the same compound, the GI50 (CAKI-1 renal) was 0.0193 µM, the TGI (CAKI-1 renal) was 13.7 µM and the GI50 (DU-145 prostate) was 5.75 µM. It also gave a TGI (DU-145 prostate) of 17.5 µM, a GI50 (SF-295 CNS) of 3.77 µM and a GI50 (HL-60(TB) leukemia) of 2.07 µM. For the same compound, the TGI (HL-60(TB) leukemia) was 3.51 µM, the GI50 (HT29 colon) was 4.23 µM and the TGI (HT29 colon) was 13.1 µM. The GI50 (OVCAR-5 ovarian) was 8.12 µM, the TGI (OVCAR-5 ovarian) was 20.2 µM and the GI50 (MOLT-4 leukemia) was < 0.01 µM. It also gave a TGI (MOLT-4 leukemia) of 0.0195 µM, a GI50 (IGROV1 ovarian) of 2.63 µM and a TGI (IGROV1 ovarian) of 13.8 µM. The GI50 (OVCAR-4 ovarian) was 5.83 µM, the TGI (OVCAR-4 ovarian) was 18.3 µM and the GI50 (TK-10 renal) was 5.05 µM. It also gave a TGI (TK-10 renal) of 16.6 µM, a GI50 (MDA-MB-435 melanoma) of 3.71 µM and a TGI (MDA-MB-435 melanoma) of 12.2 µM. The GI50 (SK-MEL-5 melanoma) was 1.15 µM, the TGI (SK-MEL-5 melanoma) was 2.44 µM and the GI50 (SR leukemia) was < 0.01 µM. The TGI (SR leukemia) was 0.0122 µM, the GI50 (HCT-116 colon) was 0.0526 µM and the TGI (HCT-116 colon) was 1.85 µM. The GI50 (NCI-H522 lung) was 3.74 µM, the TGI (NCI-H522 lung) was 10.9 µM and the GI50 (T-47D breast) was 3.16 µM. For the same compound, the GI50 (MDA-MB-231 breast) was 3.48 µM, the TGI (MDA-MB-231 breast) was 12 µM and the GI50 (HS 578T breast) was 3.75 µM. It also gave a TGI (HS 578T breast) of 11.9 µM, a GI50 (A549 NSCLC) of 0.195 µM and a TGI (A549 NSCLC) of 4.76 µM. It also gave a GI50 (HOP-92 NSCLC) of 1.94 µM, a TGI (HOP-92 NSCLC) of 4.35 µM and a GI50 (SK-MEL-28 melanoma) of 2.73 µM. It also gave a TGI (SK-MEL-28 melanoma) of 6.12 µM, a GI50 (ACHN renal) of 0.03 µM and a TGI (ACHN renal) of 1.49 µM. For the same compound, the GI50 (BT-549 breast) was 3.03 µM, the TGI (BT-549 breast) was 6.21 µM and the GI50 (COLO 205 colon) was 5.06 µM. The TGI (COLO 205 colon) was 18.1 µM, the GI50 (SNB-75 CNS) was 6.6 µM and the TGI (SNB-75 CNS) was 18.7 µM. The GI50 (UACC-62 melanoma) was < 0.01 µM, the TGI (UACC-62 melanoma) was 1.44 µM and the GI50 (SN12C renal) was 4.7 µM. The TGI (SN12C renal) was 15.9 µM, the GI50 (NCI-H226 lung) was 0.0202 µM and the TGI (NCI-H226 lung) was 0.128 µM. The GI50 (UO-31 renal) was 0.0758 µM, the TGI (UO-31 renal) was 0.464 µM and the GI50 ([…]-0 renal) was 3.54 µM. The TGI (786-0 renal) was 13.7 µM, the GI50 (HCT-15 colon) was 3.51 µM and the GI50 (MDA-MB-468 breast) was 3.79 µM. It also gave a GI50 (MALME-3M melanoma) of 0.0869 µM, a TGI (MALME-3M melanoma) of 11.9 µM and a GI50 (KM12 colon) of 0.0634 µM. It also gave a TGI (KM12 colon) of 1.38 µM, a GI50 (RXF 393 renal) of 2.59 µM and a TGI (RXF 393 renal) of 5.85 µM. It also gave a GI50 (HOP-62 NSCLC) of 8.06 µM, a GI50 (OVCAR-8 ovarian) of 4.65 µM and a GI50 (OVCAR-3 ovarian) of 2.35 µM. For the same compound, the TGI (OVCAR-3 ovarian) was 5.27 µM, the GI50 (SF-539 CNS) was 3.09 µM and the TGI (SF-539 CNS) was 11.6 µM. The GI50 (MCF7 breast) was 0.0339 µM, the TGI (MCF7 breast) was 1.04 µM and the GI50 (SF-268 CNS) was 3.87 µM. It also gave a TGI (SF-268 CNS) of 12.5 µM, a GI50 (U251 glioblastoma) of 3.68 µM and a GI50 (SW-620 colon) of 4.53 µM. For the same compound, the TGI (SW-620 colon) was 14.2 µM, the GI50 (SK-MEL-2 melanoma) was 2.69 µM and the TGI (SK-MEL-2 melanoma) was 6.28 µM.

— PubChem BioAssay (NCI)
